Counter-ions that a name gives are not always drawn. Like-named read-outs stand apart in the source and are kept apart here. Each block holds one compound with its values, some of them ahead of it.
Key:
L. tropica promastigotes [1] = test: Leishmania promastigotes in vitro susceptibility (MTT), L. tropica; type: cell-based; details: 48 h, at least three independent assays; for IC50: read-out: Promastigotes Susceptibility IC50 ± SEM, L. tropica
[2] = system: L. infantum promastigotes; test: Leishmania promastigotes in vitro susceptibility (MTT), L. infantum; type: cell-based; details: 48 h, at least three independent assays; for IC50: read-out: Promastigotes Susceptibility IC50 ± SEM, L. infantum
[3] = system: intracellular amastigotes of L. infantum; test: Intracellular amastigotes susceptibility in THP-1-derived macrophages (infection index); type: cell-based, Leishmania infantum; details: for IC50: Leishmania infantum, Macrophage, 72 h, THP-1-derived macrophages, infection index, two independent assays, read-out: Intracellular Amastigote Susceptibility IC50 ± SEM, L. infantum; for SI (selectivity index): SI for amastigote forms = CC50 THP-1 / IC50 L. infantum
Method: The in vitro intracellular amastigote assay was performed using a THP1 cell line maintained in complete RPMI at 37 °C, 5% CO2. After 24 h differentiation of 5 × 10^5 cells/mL into macrophages in sterile 16-chamber LabTek slides (Thermo Scientific, Waltham, MA, USA) with 25 ng mL^−1 phorbol myristic acid (PMA, Sigma), cells were washed once with warm RPMI to remove non-differentiated and non-adherent cells and further infected with 5 × 10^6 promastigotes/mL in a 10:1 parasite–macrophage ratio for another 24 h. After this period, slides were gently washed once with warm RPMI to remove non-internalised promastigotes. The compounds 2o, 2t, OZ1•HCl, OZ1•MsOH, and OZ1•TsOH at concentrations ranging 400 µM to 50 µM were added, and the slides were further incubated at 37 °C, 5% CO2 for 72 h. After this period, cells were washed with warm PBS, fixed with methanol (Sigma) and stained with Giemsa 5% (Sigma). AmB was used as positive control, and macrophages cultivated in RPMI medium and DMSO (0.5% v/v) were used as negative control. The infection index was determined by multiplying the percentage of infected cells and the number of amastigotes per infected cell as previously described. The results represent the average of two experiments. The IC50 for each compound was calculated by fitting the data as a non-linear regression with variable slope using a dose–response inhibitory model in the GraphPad Prism V 8.0 (Dotmatics, San Diego, CA, USA) program.
Selectivity index (SI) was determined for each compound as the quotient between the cytotoxicity in cell lines (CC50) and the inhibitory concentration (IC50) (SI = CC50 in mammalian cells/IC50 L. infantum).

[4] = In vitro cytotoxicity assessment in THP-1 cell line (MTT); type: cell-based, human; details: human, THP-1 cells, 48 h, MTT; at least three independent assays; read-out: Cytotoxicity CC50 ± SEM
Method: (§1) THP-1 (ATCC® TIB-202TM) human acute monocytic leukemic cell line was obtained from DSMZ, Germany and cultured in RPMI 1640 (Sigma, Darmstadt, Germany) supplemented with 10% (v/v) FBS, 1% (v/v) penicillin-streptomycin (Sigma), and L-glutamine 200 mM (Sigma) at 37 °C, 5% CO2.
(§2) THP-1 cell line was used to calculate the endoperoxide–pyrazole hybrids’ half-maximal cytotoxic concentration (CC50). THP-1 was plated at a final density of 5 × 10^5 cells/mL, in 96-well flat bottom culture plates (VWR), using six different concentrations of the compounds (OZ1, OZ2, T1, T2 and PIR: 800, 400, 200, 100, 50, 25 µM) and amphotericin B (10, 5, 2.5, 1.25, 0.625, 0.313 µM). A blank (RPMI medium alone) and an untreated control (parasites with RPMI medium plus 1% DMSO as vehicle solution) were also included. All the compounds were plated out in quadruplicate and incubated for 48 h at 37 °C ± 1 °C, 5% CO2.
(§3) Following the incubation period, 20 µL per well of MTT was added as described in Section 3.5.2. After absorbance readings, the CC50 values of each compound were determined with GraphPad Prism V 9.0 (Dotmatics, San Diego, CA, USA) as previously described. At least three independent assays were performed.

L. major = system: L. major; set-up: method as in PMID 30215271; details: given in Figure 1A; cited from earlier work
L. tropica promastigotes [5] = test: Morphometric analysis of L. tropica promastigotes (optical microscopy, Giemsa); type: cell-based, Leishmania tropica; details: 48 h, OZ1 300 µM, OZ2 200 µM; for Body size of L. tropica promastigotes: amphotericin B 0.62 µM; for Morphological alterations of L. tropica promastigotes: Giemsa, 1000×
Method: To detect morphological alterations, at the end of the incubation period (48 h), 30 µL of the parasite’s suspension were collected from different treatment concentrations of each compound to prepare smears on glass slides, fixed with methanol, and stained with 5% (v/v) Giemsa (Sigma). Stained slides were examined with bright field in an inverted microscope (Eclipse 80i Nikon, Tokyo, Japan) with 1000× amplification, and images were captured with a Nikon DS-Ri1 camera. Image J (version 1.53k) was used to measure promastigote body and flagellum size of at least 30 parasite samples.
Data were expressed as mean ± standard error of the mean (SEM), and statistical analysis was performed with one-way ANOVA (Bonferoni’s multiple comparisons test) to determine whether differences between means relatively to untreated control were significant at different levels (p < 0.05, p < 0.01, p < 0.001).

L. infantum = system: L. infantum; set-up: method as in PMID 26014947; details: given in Figure 1A; cited from earlier work
L. donovani = system: L. donovani; set-up: method as in PMID 31979089; details: given in Figure 1A; cited from earlier work
THP-1 cell line = test: In vitro cytotoxicity assessment in THP-1 cell line (MTT); type: cell-based, human; details: for selectivity (SI values): THP-1 cytotoxicity versus antileishmanial activity of free hybrids (promastigotes); for CC50: THP-1 cells, 48 h, MTT, at least three independent assays, read-out: Cytotoxicity CC50 ± SEM
Method: as §1, §2, §3

[6] = Solubility in culture media (observation); type: physicochemical
Excerpt: Calculated intrinsic aqueous solubility (ClogS) values show similar values between trioxolanes (1.20–1.38) and tetraoxanes (1.18–1.21). However, the poor solubility of dispiro 4′’-substituted tetraoxanes may be associated to their structural symmetry. A decrease in molecular symmetry has been correlated to better physicochemical properties, such as absorption and solubility, resulting in enhanced systemic exposure to a drug. So it is anticipated that 3′’-substituted analogues could overcome this solubility issue. Therefore, future optimization to 3”-substituted analogues should be considered. Likewise, conversion of the compounds into water-soluble salts, as well as encapsulation of the endoperoxide structures in delivery systems such as liposomes, could represent alternative strategies to solve the solubility issue.

SMILES: Nc1ccnn1C(=O)C1CCC2(CC1)OOC1(OO2)C2CC3CC(C2)CC1C3 (stereo not shown) (as salt: tosylate) [T1•TsOH, (5-Amino-1H-pyrazol-1-yl) (dispiro[cyclohexane-1,3′-[1,2,4,5]tetraoxane-6′,2″-tricyclo-[3.3.1.1^3,7]-decan]-4-yl) methanone p-tosylate]
melting point: 156 °C (dec.)

SMILES: CCOC(=O)C1CCC2(CC1)OOC1(O2)C2CC3CC(C2)CC1C3 (stereo not shown) [2o, Ethyl dispiro[cyclohexane-1,3′-[1,2,4]trioxolane-5′,2″-tricyclo[3.3.1.1^3,7]decane]-4-carboxylate]
IC50 (L. tropica promastigotes [1]; Leishmania tropica): 156 ± 18 µM
IC50 ([2]; Leishmania infantum): 123 ± 1 µM
IC50 [3]: 330 ± 48 µM
SI (selectivity index) [3]: 1.2
CC50 at 48 h [4]: 381 ± 172 µM

SMILES: CCOC(=O)C1CCC2(CC1)OOC1(OO2)C2CC3CC(C2)CC1C3 (stereo not shown) [2t, Ethyl dispiro[cyclohexane-1,3′-[1,2,4,5]tetraoxane-6′,2″-tricyclo[3.3.1.1^3,7]decane]-4-carboxylate]
IC50 (L. tropica promastigotes [1]; Leishmania tropica): 143 ± 9 µM
IC50 ([2]; Leishmania infantum): 128 ± 27 µM
IC50 [3]: 45 ± 28 µM
SI (selectivity index) [3]: 8.4
CC50 at 48 h [4]: 374 ± 119 µM

SMILES: COc1ccc(-c2cn(-c3ccccc3)nc2/C=N/N=C/c2c(C)nn(-c3ccccc3)c2Cl)cc1 [3i]
IC50 (L. major): 0.74 ± 0.1 µM

SMILES: C[C@@H]1[C@H](O)[C@@H](C)/C=C/C=C/C=C/C=C/C=C/C=C/C=C/[C@H](O[C@@H]2O[C@H](C)[C@@H](O)[C@H](N)[C@@H]2O)C[C@@H]2O[C@](O)(C[C@@H](O)C[C@@H](O)[C@H](O)CC[C@@H](O)C[C@@H](O)CC(=O)O[C@H]1C)C[C@H](O)[C@H]2C(=O)O [AmB, Amphotericin B, reference compound]
IC50 (L. tropica promastigotes [1]; Leishmania tropica): 0.3 ± 0.1 µM
Body size of L. tropica promastigotes (L. tropica promastigotes [5]): 6.463 ± 1.874 µm
IC50 ([2]; Leishmania infantum): 0.2 ± 0.01 µM
IC50 [3]: 0.08 ± 0.05 µM
SI (selectivity index) [3]: 290
CC50 at 48 h [4]: 23 ± 3 µM

SMILES: NCC1CCC2(CC1)OOC1(O2)C2CC3CC(C2)CC1C3 (stereo not shown) [LC95]
IC50 (L. infantum): 9.35 ± 3.64 µM

SMILES: O=C1CCC2(CC1)OOC1(OO2)C2CC3CC(C2)CC1C3 [LC140]
IC50 (L. donovani): 2.52 ± 0.65 µM

SMILES: Nc1cc[nH]n1 [PIR, 3-aminopyrazole, reference compound]
Promastigotes Susceptibility IC50 ± SEM, L. tropica (L. tropica promastigotes [1]): devoid of antileishmanial activity
IC50 (L. tropica promastigotes [1]; Leishmania tropica): > 400 µM
Promastigotes Susceptibility IC50 ± SEM, L. infantum [2]: devoid of antileishmanial activity
IC50 ([2]; Leishmania infantum): > 400 µM
CC50 at 48 h [4]: 202 ± 10 µM

More lines, main results first:

IC50 (L. tropica promastigotes [1]; Leishmania tropica): 219 ± 25 µM
Promastigotes Susceptibility IC50 ± SEM, L. infantum [2]: lack of activity
IC50 [2]: > 400 µM
SMILES: Nc1ccnn1C(=O)C1CCC2(CC1)OOC1(O2)C2CC3CC(C2)CC1C3 (stereo not shown) [OZ1, (5-Amino-1H-pyrazol-1-yl)(dispiro[cyclohexane-1,3′-[1,2,4]trioxolane-5′,2″-tricyclo-[3.3.1.1^3,7]-decan]-4-yl)methanone]
Flagellum size of L. tropica promastigotes (L. tropica promastigotes [5]): 13.561 ± 3.535 µm
Body size of L. tropica promastigotes (L. tropica promastigotes [5]): 5.265 ± 1.733 µm
Morphological alterations of L. tropica promastigotes (L. tropica promastigotes [5]): considerable damage
CC50 at 48 h [4]: 664 ± 163 µM
selectivity (SI values) (THP-1 cell line): < 5

IC50 (L. tropica promastigotes [1]): 161 ± 19 µM
IC50 ([2]; Leishmania infantum): 219 ± 44 µM
SMILES: Nc1ccn(C(=O)C2CCC3(CC2)OOC2(O3)C3CC4CC(C3)CC2C4)n1 (stereo not shown) [OZ2, (3-Amino-1H-pyrazol-1-yl)(dispiro[cyclohexane-1,3′-[1,2,4]trioxolane-5′,2″-tricyclo[3.3.1.1^3,7]decan]-4-yl)methanone]
Flagellum size of L. tropica promastigotes (L. tropica promastigotes [5]): 12.404 ± 3.745 µm
Body size of L. tropica promastigotes (L. tropica promastigotes [5]): 9.646 ± 2.744 µm
Morphological alterations of L. tropica promastigotes (L. tropica promastigotes [5]): considerable damage
CC50 (THP-1 cell line): 202 ± 116 µM
selectivity (SI values) (THP-1 cell line): < 5

IC50 (L. tropica promastigotes [1]; Leishmania tropica): > 400 µM
IC50 ([2]; Leishmania infantum): > 400 µM
Solubility in M199 and RPMI medium [6]: low solubility
SMILES: Nc1ccnn1C(=O)C1CCC2(CC1)OOC1(OO2)C2CC3CC(C2)CC1C3 (stereo not shown) [T1, (5-Amino-1H-pyrazol-1-yl)(dispiro[cyclohexane-1,3′-[1,2,4,5]tetraoxane-6′,2″-tricyclo-[3.3.1.1^3,7]-decan]-4-yl)methanone]
CC50 (THP-1 cell line): > 800 µM

Solubility in M199 and RPMI medium [6]: low solubility
SMILES: Nc1ccn(C(=O)C2CCC3(CC2)OOC2(OO3)C3CC4CC(C3)CC2C4)n1 (stereo not shown) [T2, (3-Amino-1H-pyrazol-1-yl)(dispiro[cyclohexane-1,3′-[1,2,4,5]tetraoxane-6′,2″-tricyclo[3.3.1.1^3,7]decan]-4-yl)methanone]
CC50 at 48 h [4]: > 800 µM

Source: paper PMC9457810, “Synthesis, Structure and Antileishmanial Evaluation of Endoperoxide–Pyrazole Hybrids” (Molecules, 2022)
